The text below walks through data of US20160040128A1, “METHOD” (PCI BIOTECH AS, priority 2013, published 2016).

The subject of series [1] is DCs. Put plainly: Activation of DCs: surface marker expression by flow cytometry. The format is cell-based, mouse. As for the experimental part:
(§1) The cells were then washed and cultured in Amphinex- and OVA-free medium for another 2 hours before being treated with Lumisource® light for 3 minutes. The DCs were then cultured overnight before collection of supernatants for analysis of the cytokines TNF-α (a), IL-6 (b), IL-12 (c) and IL-1β (d). To measure the expression of CD80 by flow cytometry, DCs were cultured with 0, 0.1 or 1 μg/ml Amphinex and 0 or 10 μg/ml OVA as indicated (e). The histograms are representative of triplicates and show cells that were gated on viable and CD11c-positive cells. Arrows indicate samples that were treated with light for 3 min.
(§2) The DC viability was tested 2 hours after the PCI treatment by staining the cells with propidium iodide and Annexin-V to identify necrotic and apoptotic cells, respectively, which were analysed by flow cytometry (FACSCanto from BD Biosciences, San Jose, USA). The analysis was performed using the FlowJo 8.5.2 software from Tree Star, Inc. (Ashland, Oreg.). Activation of DCs was further tested by measuring the secretion of TNF-α, IL-6, IL-12 and IL-1β by ELISA (eBioscience) and the expression of MHC I, MHC II, CD40, CD80, CD83 and CD86 by flow cytometry. Briefly, the DCs were incubated for 2 hours with Amphinex or lipopolysaccharide E. coli clone 026:B6 (Sigma Aldrich), washed, incubated for another 2 hours in fresh medium, illuminated for 3 min with Lumisource® light, and incubated. Cytokines were analysed by ELISA from supernatants of 24 hours cultures, and flow cytometry was done on cells after 48 hours incubation. All FACS antibodies were purchased from BD Pharmingen (Basel, Switzerland) or from eBioscience.
DC constitutively expressed the co-stimulatory molecules CD80 and CD86 (FIG. 3e; CD80 only shown). […] The expression of CD40, MHC I and MHC II was not affected by Amphinex treatment (not shown).
A general note: Flow cytometry measures light scatter and fluorescence of single cells or particles in a stream.

The test system of series [2] is Bone-marrow derived murine DCs. Put plainly: PCI-induced apoptosis and cell death of DCs, Annexin-V / propidium iodide flow cytometry. The format is cell-based. The following applies: 0.2 μg/ml Amphinex, 435 nm light 1 to 10 minutes, 2 hours rest at 37° C. As for the experimental part: The DCs were then washed and seeded into culture plates and treated with light for various time periods (minutes) as indicated. The cells were cultured for another 2 hours (or overnight) and the viability was analysed by flow cytometry after staining with Annexin-V and propidium iodide (PI). The results are illustrated as representative dotbiots (a) or summarised in histograms (b).
The DC viability was tested 2 hours after the PCI treatment by staining the cells with propidium iodide and Annexin-V to identify necrotic and apoptotic cells, respectively, which were analysed by flow cytometry (FACSCanto from BD Biosciences, San Jose, USA). The analysis was performed using the FlowJo 8.5.2 software from Tree Star, Inc. (Ashland, Oreg.). […] Cytokines were analysed by ELISA from supernatants of 24 hours cultures, and flow cytometry was done on cells after 48 hours incubation. […]
Therefore in a series of experiments, we analysed cell death and apoptosis by flow cytometry after staining of cells with propidium iodide and fluorescence-labelled anti-Annexin-V. A concentration of 0.2 μg/ml Amphinex induced light-dose dependent apoptosis and cell death upon illumination with 435 nm light for 1 to 10 minutes (FIG. 2a); the DCs were rested at 37° C. for 2 hours after light treatment before staining and acquisition. […]

For series [3], the system named is DCs. Put plainly: Activation of DCs: cytokine secretion (TNF-α, IL-6, IL-12, IL-1β) by ELISA. Format: cell-based, mouse. The protocol: as §1, §2
We further tested the activation of DCs and their innate immune reactions after PCI treatment. Adjuvants and especially pathogen-associated molecular patterns (PAMPs) typically activate DCs and other antigen presenting cells via stimulation of pathogen recognition receptors such as Toll-like receptors, NOD-like receptors, C-type lectin and mannose receptors. Such activation then is typically characterised by secretion cytokines important for stimulation and regulation of further innate as well as adoptive immune responses. […] Although weak, the adjuvant effect with regard to IL-6 seemed light dependent, as IL-6 secretion was not increased by Amphinex or light alone, but only by their combination. However, the effect was much weaker than after stimulation of DCs with 1 μg/ml lipopolysaccharide (LPS). While stimulation of TNF-α and IL-6 secretion characterises the general adjuvant potential of a compound or a treatment, stimulation of IL-12 and IL-1β illustrates the potential to trigger Th1 T-cell responses and inflammasome, respectively.
On the technique in general: ELISA stands for enzyme-linked immunosorbent assay.

Series [4] has as its system bone-marrow-derived murine DCs. Put plainly: In vitro MHC class-I antigen presentation: OVA-pulsed, Amphinex- and light-treated DCs co-cultured with OT-1 CD8 T cells, IFN-γ ELISA. The format is cell-based, mouse. The protocol:
The DCs were washed and illuminated for the indicated time intervals before adding 100,000 purified CD8 T cells from OT-1 mice. […] After washing, the DCs were illuminated for 15 seconds.
The antigen OVA (Sigma Aldrich, Buchs, Switzerland) and the photosensitiser Amphinex (TPCS2a, PCI Biotech, Lysaker, Norway) were incubated with DCs using petri dishes. Typically, DCs were pulsed for 2 h with OVA and Amphinex. The DCs were then collected and washed by centrifugation before re-suspension in medium and further incubation on petri dishes for 2 h in Amphinex- and OVA-free medium; this allows removal of Amphinex from the outer plasma membrane. The DCs were then washed, counted and plated in round-bottom 96-well plates (typically 100,000 DCs per well), and the cells were exposed to light (435 nm) using LumiSource® (PCI Biotech) for different time intervals. Sex-matched CD8-purified OT-1 cells were then added to the DC plates at 100,000 cells per well and incubated at 37° C. overnight. The secretion of IFN-γ into supernatants was measured using ELISA according to the protocol from eBioscience (Ready-SET-Go!®, Bender MedSystems, Vienna, Austria).
After removing the photosensitiser and antigen by washing and incubation for another 2 hours, the DCs were transferred to 96-well plates at 100,000 cells per well and treated with light at different time-doses before admixing an equal number of purified OT-1 CD8 T cells. […] Of note, antigen presentation and IFN-γ secretion of soluble OVA was improved by Amphinex alone, but not by light alone (FIG. 1a). To further test the sensitivity of DCs to PCI treatment, equivalent assays were performed using a single light dose of 15 seconds, but a wide range of Amphinex doses (0.0005-0.5 μg/ml), namely 0.003, 0.006, 0.0125, 0.025, 0.05, 0.1 and 0.2 μg/ml.

The mark [5] stands for this setting: PCI treatment: 1 μg/ml Amphinex plus 3 min light.
[6] abbreviates: PCI treatment: 1 μg/ml Amphinex plus 3 min light, measured after 22 hours incubation.

Take “Disulfonated tetraphenyl chlorin [Amphinex]”: in the series on DCs [1] (Amphinex treatment), the CD40 expression result was “not affected”, the “MHC I expression” value is on record as “not affected” and the “MHC II expression” value is on record as “not affected”. In addition, the CD80 expression entry with DCs [1] (Amphinex-treated DCs also treated with light 3 min, with or without OVA, gated on viable CD11c-positive cells) was “down-regulation”. For the same substance, in series [2], the “amount of cells dying” value is listed as 50-60% and the apoptotic cells result was “approx. 20%”. Moreover, the IL-6 secretion entry in the series with DCs [3] (Amphinex alone, without light) is “not increased”. The “cytokine-stimulating (adjuvant) effect compared with 1 μg/ml lipopolysaccharide (LPS)” value in the series on DCs [3] (PCI treatment (Amphinex plus light) vs 1 μg/ml LPS) is “much weaker”. For the same substance, in the series with DCs [3] (setting [5]), the IL-1β secretion entry is given as “neither were notably stimulated” and the IL-12 secretion result is listed as “neither were notably stimulated”. In the series with DCs [3] (setting [6]), the IL-6 secretion entry is listed as “weak stimulation” and the TNF-α secretion entry is “weak stimulation”. The “immune responses (IFN-γ secretion), 0.05 μg/ml compared with 0.2 μg/ml Amphinex” value in series [4] (0.05 vs 0.2 μg/ml Amphinex) is on record as “stronger immune responses”. In addition, the “antigen presentation (IFN-γ secretion by OT-1 CD8 T cells)” value in series [4] (Amphinex 0.025 and 0.05 μg/ml, light 15 seconds) is recorded as “facilitated antigen presentation”. In series [4] (Amphinex alone, without light), the “antigen presentation and IFN-γ secretion of soluble OVA” value is “improved”. In addition, the antigen presentation entry in series [4] (Amphinex combined with high light doses) is recorded as “clear detrimental effect”. In series [4] (Amphinex doses higher than 0.05 μg/ml, light 15 seconds), the “IFN-γ secretion by OT-1 CD8 T cells” value is on record as “declined”. Moreover, the “MHC-1 antigen presentation as measured by IFN-γ secretion” value in series [4] (DCs pulsed 2 h with OVA with 0.05 or 0.2 μg/ml Amphinex vs OVA only, IFN-γ after 24 hours) was “significantly increased”.
